For data set [1], the system named is AhR. More on the design: method as in Nguyen and Bradfield, 2008; Mitchell and Elferink, 2009. The note with it: ref Nguyen and Bradfield, 2008, Mitchell and Elferink, 2009; cited from earlier work.
The subject of data set [2] is AhR. Details: method as in Jinno et al., 2006. The conditions noted are these: ref Jinno et al., 2006, read-out: reporter assay EC50; cited from earlier work. (In general: Reporter assays use an easily measured gene product as a stand-in for the process of interest.)
For data set [3], the target named is T1, AhR (Homo sapiens, UniProt P35869).
T1 construct: endogenous in cells; host or cells: HepG2
T1 sequence (P35869 11-848): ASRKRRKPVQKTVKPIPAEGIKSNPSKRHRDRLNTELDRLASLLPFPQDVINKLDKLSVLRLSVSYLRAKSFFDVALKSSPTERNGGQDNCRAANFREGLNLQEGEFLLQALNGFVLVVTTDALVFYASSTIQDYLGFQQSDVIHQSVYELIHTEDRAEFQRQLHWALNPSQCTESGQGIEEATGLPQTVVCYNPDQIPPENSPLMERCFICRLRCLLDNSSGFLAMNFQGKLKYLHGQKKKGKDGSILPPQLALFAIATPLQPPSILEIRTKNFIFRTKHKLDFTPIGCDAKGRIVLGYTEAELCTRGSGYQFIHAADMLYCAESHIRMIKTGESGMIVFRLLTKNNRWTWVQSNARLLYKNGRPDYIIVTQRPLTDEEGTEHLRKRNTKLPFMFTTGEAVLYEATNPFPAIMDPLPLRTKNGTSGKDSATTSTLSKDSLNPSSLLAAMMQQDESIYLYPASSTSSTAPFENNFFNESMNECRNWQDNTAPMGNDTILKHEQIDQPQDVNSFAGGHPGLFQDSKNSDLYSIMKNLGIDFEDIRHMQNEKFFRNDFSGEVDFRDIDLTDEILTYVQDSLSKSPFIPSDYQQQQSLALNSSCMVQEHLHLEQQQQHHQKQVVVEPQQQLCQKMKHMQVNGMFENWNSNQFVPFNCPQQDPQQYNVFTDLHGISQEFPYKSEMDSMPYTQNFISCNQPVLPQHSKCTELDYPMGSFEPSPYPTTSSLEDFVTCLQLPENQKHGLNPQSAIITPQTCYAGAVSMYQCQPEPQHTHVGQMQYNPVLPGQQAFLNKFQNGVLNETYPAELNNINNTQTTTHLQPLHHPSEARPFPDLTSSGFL
In words: AhR nuclear translocation assay in HepG2 cells. The format is cell-based. The note with it: 2 μM. The method, then:
HepG2 cells were plated in Lab-Tek II Chamber slides (Nalgene, Rochester, NY) at a seeding density of 50,000 cells/well. The cells were allowed to attach overnight and were treated for 2 h or 24 h with 10 or 40 μM A-998679, 2 μM 3-methylchloranthrene (3-MC) as a positive control, or 0.1% (v/v) DMSO vehicle. The cells were fixed in fresh 3% paraformaldehyde solution in PBS followed by a PBS wash, and were then permeabilized for 5 min using 0.2% Triton X-100 in PBS followed by another PBS wash. The cells were then incubated with blocking buffer consisting of 1% BSA/PBS solutions and immediately incubated with a 1:50 dilution of rabbit polyclonal antibody to AhR (Abcam, Cambridge, MA catalog# 63636) for 1 h at 37°C. Cells were then washed with PBS, re-blocked for 10 min, and stained with an Alexa 546 donkey anti-rabbit secondary antibody (diluted 1:200; Invitrogen Life Technologies) for 45 min at 37°C. The cells were then washed with PBS, stained with 0.5 μM Hoescht solution for 15 min, and again washed with PBS. The chamber slides were sealed and examined under the microscope. Images were acquired with a SPOT RT SE digital camera (Diagnostic Instruments, Sterling Heights, MI) mounted on a Leica (Wetzlar, Germany) DMIRE inverted florescence microscope using a 20× objective. Image acquisition was done using Metamorph® software (Molecular Devices, Sunnyvale, CA) and percent translocation of the AhR probe was quantitated using MetaXpress (Molecular Devices). Twenty microscope fields were evaluated per well (~3000–6000 cells/well).

In data set [4] the target is T2, aryl hydrocarbon receptor (AhR) (Homo sapiens, UniProt P35869).
T2 construct: endogenous in cells; host or cells: HepG2
T2 sequence (P35869 11-848): T1 sequence (P35869 11-848)
In words: AhR luciferase reporter assay in HepG2 cells. The format is cell-based. The procedure: HepG2 cells were transiently transfected overnight with the construct (1200 bp portion of the human CYP1A1 promoter region containing 2 copies of the functional consensus sequence for the DRE in luc2P luciferase vector (SwitchGear Genomics cat# 114555, Menlo Park, CA) using lipofectin (Invitrogen Life Technologies) at 500 ng construct per million cells. Following transfection, the cells were replated in a 96-well format and dosed for 24 h with 0.1% (v/v) DMSO vehicle, 3-MC at 0.05, 0.1, 0.5, 1, 5, 10 μM, and A-998679 at 1.5625, 3.125, 6.25, 12.5, 25, and 50 μM. Luminescence signal was generated using the Dual-Luciferase Reporter Assay System (Promega, Madison, WI) and detected with a Tecan Genios Pro reader (Männedorf, Switzerland).

Each structure is given as a SMILES string. pEC50: −log10 of the molar value.

Take `Clc1cc2c(cc1Cl)Oc1cc(Cl)c(Cl)cc1O2` [TCDD, 2,3,7,8-Tetrachlorodibenzo-p-dioxin]: in the data set with AhR [1], the “binding EC50” value is given as “~ pM to nM range”.

Broadly, the pEC50 is −log10 of the EC50, conventionally taken in molar units. Consider `C[C@]12CCc3c(ccc4cc(O)ccc34)[C@@H]1CCC2=O` [equilenin], for which the pEC50 with AhR [2] was approximately 5.00.

As for `Cc1ccc2cc3c(ccc4ccccc43)c3c2c1CC3` [3MC, 3-methylcholanthrene, reference compound], at AhR [3] (2 h, vehicle 15.6), the “AhR nuclear staining (% positive cells) 2 h” value is reported as 26.3 % positive cells. Further, the “AhR nuclear staining (% positive cells) 24 h” value at AhR [3] (24 h, vehicle 3.4) was found to be 11.1 % positive cells. Also, in data set [4] (luciferase reporter), the “potency to activate AhR relative to A-998679” value is recorded as ~ 8 fold. Also, the pEC50 in data set [4] (luciferase reporter with human DRE construct, 24 h, read-out: EC50, activation of AhR signaling) is 5.68. For the same compound, the “maximal increase over vehicle” value in data set [4] (luciferase reporter, 24 h) amounted to 97 fold.

Source of the values: PMC3481155, “AhR activation underlies the CYP1A autoinduction by A-998679 in rats” (Frontiers in Genetics, 2012).
